We go through 3 molecules from US20160052936A1, “SPIROINDOLINE DERIVATIVES FOR USE AS GONADOTROPIN-RELEASING HORMONE RECEPTOR ANTAGONISTS” (BAYER PHARMA AKTIENGESELLSCHAFT, priority 2013, published 2016).

One assay addresses T1, human GnRH receptor (Homo sapiens, UniProt P30968).
T1 construct: host or cells: CHO cells stably expressing human GnRH receptor (line established by Prof. Thomas Gudermann)
T1 sequence (P30968 1-328): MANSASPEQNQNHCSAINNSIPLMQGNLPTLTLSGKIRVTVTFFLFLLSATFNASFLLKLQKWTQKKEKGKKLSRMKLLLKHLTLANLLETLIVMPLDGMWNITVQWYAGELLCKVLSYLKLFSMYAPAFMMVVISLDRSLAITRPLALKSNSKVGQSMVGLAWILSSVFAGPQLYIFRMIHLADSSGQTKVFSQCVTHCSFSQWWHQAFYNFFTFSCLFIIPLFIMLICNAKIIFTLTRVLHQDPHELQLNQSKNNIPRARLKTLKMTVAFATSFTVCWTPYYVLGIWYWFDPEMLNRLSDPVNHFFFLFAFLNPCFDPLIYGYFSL
Kind of assay: IP-One HTRF assay with buserelin stimulation. Type of assay: cell-based. To be noted: CHO cells stably expressing human GnRH receptor; buserelin at EC80; read-out: Potency in IP-One HTRF assay with buserelin (at EC80) stimulation, given as IC50. From the text: By using homogenous time-resolved fluorescence resonance energy transfer (HTRF), the generation of one component of the GnRH-R signalling cascade can be measured. After stimulation of CHO cells stably expressing human GnRH receptor (established by Prof. Thomas Gudermann, currently University of Marburg, Germany; supplied as frozen cell aliquots by Cell Culture Services, Hamburg, Germany) with the EC80 of the GnRH agonist buserelin, Gq protein-coupled receptor signalling cascade is activated resulting in PLC-dependent cleavage of PIP2 to Inositol-1,4,5-triphosphate (IP3) and Diacylglycerol. The second messenger IP3 is degraded intracellularly to myo-inositol. Inhibition of the final degradation step from Inositol-1-phosphate (IP1) to myo-inositol by addition of lithium chloride leads to accumulation of IP1 in the cells. In cell lysates, IP1 can be detected via an antibody-based HTRF detection technology, where IP1 can displace the FRET acceptor IP1-d2 from binding by Terbium-labelled anti-IP1 antibody as donor resulting in a signal decrease. Compounds were tested for their capability of inhibiting GnRH-R activation by buserelin. For all IP-One HTRF® assays reagents of Cisbio Bioassays (IP-One Tb Jumbo kit, #62IPAPEJ; Cisbio Bioassays, Bagnols sur Cèze Cedex, France) were used.
For the assay, frozen cell aliquots were thawed and a cell suspension (3.33×10^6 cells/mL) containing IP1-d2 (dilution 1:40) was prepared and incubated at 37° C. After 1 h 3 μl of the cell suspension were added to 50 nl of a 100-fold concentrated solution of the test compound in DMSO pre-dispensed in a well of a white low-volume 384-well microtiter plate (Greiner Bio-One, Frickenhausen, Germany). […] Plates were incubated for 1 h at 37° C. and 5% carbon dioxide before the cells were lysed by adding 3 μl Terbium-labelled anti-IP1 antibody (1:40) diluted in Conjugate & Lysis buffer as supplied with the kit. After an incubation for 1 h at 22° C. to enable complete cell lysis and antibody binding to free IP1 or IP1-d2, plates were measured in an HTRF reader, e.g. a RUBYstar, PHERAstar (both BMG Labtechnologies, Offenburg, Germany) or a Viewlux (PerkinElmer LAS, Rodgau-Jügesheim, Germany).
From the fluorescence emissions at 665 nm (FRET) and at 620 nm (background signal of Terbium-antibody), the ratio (emission at 665 nm divided by emission at 620 nm) was calculated and the data were normalized (reaction without test compound=0% inhibition; all other assay components except agonist=100% inhibition). On the same microtiter plate, compounds were tested at 10 different concentrations in the range of 20 μM to 1 nM (20 μM, 6.7 μM, 2.2 μM, 0.74 μM, 0.25 μM, 82 nM, 27 nM, 9.2 nM, 3.1 nM and 1 nM; dilution series prepared before the assay at the level of the 100-fold conc. stock solutions by serial 1:3 dilutions in 100% DMSO) in duplicate values for each concentration. By using an in-house software, the IC50 values were calculated by a 4 parameter fit.
Within the meaning of the present invention the antagonist activity is reflected by the ability of a compound of the invention to antagonize human GnRH receptor stimulation in IP-One HTRF® assay at least three times the standard deviation over the background level.
Background: TR-FRET usually uses a lanthanide donor and a delayed reading to cut background.

For another assay, the target named is T2, human GnRHR (Homo sapiens, UniProt P30968).
T2 construct: own knowledge: Tag-lite cells usually carry an N-terminal SNAP-tag fusion; host or cells: Hek293 cells, transiently transfected, supplied frozen
T2 sequence (P30968 1-328): T1 sequence (P30968 1-328)
The assay can be described thus: Tag-Lite receptor binding assay. To be noted: Hek293 cells transiently transfected with human GnRHR; displacement of green-labelled GnRHR binding peptide; read-out: Potency in receptor binding assay using TAG-LITE technology, given as IC50. The text has this:
2.2. Tag-Lite® Receptor Binding Assay
This binding assay is based on the fluorescence resonance energy transfer between fluorescence donor labelled human GnRHR and a green-labelled GnRHR binding peptide. Compounds interfering with the ligand binding side of the human GnRHR will replace the labelled peptide resulting in a signal decrease. The assay principle was established by Cisbio Bioassays (Bagnols-sur-Cèze Cedex, France) and further details are available on their homepage.
The assay procedure was further optimized for use in-house with reduced assay volumes. Frozen Hek293 cells, transiently transfected with human GnRHR and Terbium-labelling of the receptor, were supplied by Cisbio Bioassays as well as Tag-Lite buffer and green-labelled GnRHR binding peptide. Cells were thawed and transferred to cold Tag-Lite buffer. A volume of 8 μl of this cell suspension were added to 100 nl of a 160-fold concentrated solution of the test compound in DMSO pre-dispensed in a well of a white low-volume 384-well microtiter plate (Greiner Bio-One, Frickenhausen, Germany). The mixture was incubated for 5 min at room temperature. In the next step either 4 μl Tag-Lite buffer or as control 4 μl of an exceeding amount unlabelled binding peptide in Tag-Lite buffer were transferred to the mixture. The green-labelled GnRHR binding peptide was added in a final step at EC50 in a volume of 4 μl Tag-Lite buffer. After an incubation of 1 h at room temperature plates were measured in a microplate reader, e.g. a PHERAstar (BMG Labtechnologies, Offenburg, Germany) by using a specific optic module.
A ratio from the fluorescence emissions at 520 nm (green fluorescence) and at 490 nm (background signal of Terbium-labelled GnRHR) was calculated and the data were normalized (reaction without test compound=0% inhibition of binding of green-labelled peptide; reaction without test compound with exceeding amount unlabelled binding peptide=100% inhibition of binding of green-labelled peptide). On the same microtiter plate, compounds were tested at 10 different concentrations in the range of 12.5 μM to 0.64 nM (12.5 μM, 4.2 μM, 1.4 μM, 0.46 μM, 0.15 μM, 51 nM, 17 nM, 5.7 nM, 1.9 nM and 0.64 nM; dilution series prepared before the assay at the level of the 160-fold conc. stock solutions by serial 1:3 dilutions in 100% DMSO) in duplicate values for each concentration. By using an in-house software, the IC50 values were calculated by a 4 parameter fit.

For assay [1], the system named is LH level in ovariectomized rats. The assay can be described thus: LH suppression in the ovariectomized rat. It is filed as in vivo. To be noted: 0.1 mg/kg i.p., 8 hours. From the text: 2.5. LH Suppression in the Ovariectomized Rat
The in vivo potency of GnRH antagonists can be quantified by a LH suppression test in ovariectomized rats. GnRH triggers the LH release from the pituitary mediated by GnRH receptors. Ovarectomy of adult female rats results in elevated levels of circulating LH due to a lack of negative feedback by gonadal steroids. GnRH antagonists suppress the release of LH and accordingly suppression of LH levels can be used to quantify the in vivo potency of GnRH antagonists.
Female adult rats were ovariectomized surgically and they were allowed to recover for at least one week. The animals received 0.5 mg/kg, 3 mg/kg or 10 mg/kg of Example 3.1 by single per oral administration. For comparison reasons a vehicle control and a positive control, 0.1 mg/kg cetrorelix (i.p.), were given once. At 0 min, 15 min, 30 min, 1 hour, 2 hours, 4 hours, 8 hours and 24 hours after compound administration blood was taken from the retro orbital plexus (n=6 per blood withdrawal) for the measurement of serum LH and serum compound levels.
As nonbinding explanatory example of compounds according to the invention FIG. 1 represents the LH level following administration of the compound according to Example 3.1, to ovariectomized adult rats. [Filled circle: Vehicle; Circle, dotted black line: Cetrorelix (0.1 mg/kg); Triangle: Example 3.1 (0.5 mg/kg); Reverse triangle: Example 3.1 (3 mg/kg); Diamond: Example 3.1 (10 mg/kg)]. Values are given as mean+standard deviation (n=6).

Molecules are shown by their SMILES. Non-standard residues stand in square brackets, D forms with d. Residues, ends and D or L forms follow the SMILES beside them. dPhe(4-Cl) = N[C@H](Cc1ccc(Cl)cc1)C(=O)O; d2Nal = N[C@H](Cc1ccc2ccccc2c1)C(=O)O; dCit = NC(=O)NCCC[C@@H](N)C(=O)O; d3Pal = N[C@H](Cc1cccnc1)C(=O)O

Consider `O=C(NCc1ncc(C(F)(F)F)cc1Cl)c1ccc2c(c1)C1(CCS(=O)(=O)CC1)C(C1CC1)N2S(=O)(=O)c1cccc(OC(F)F)c1` (racemic) [Example 14, N-{[3-chloro-5-(trifluoromethyl)pyridin-2-yl]methyl}-2-cyclopropyl-1-{[3-(difluoromethoxy)phenyl]sulfonyl}-1,2,2′,3′,5′,6′-hexahydrospiro[indole-3,4′-thiopyran]-5-carboxamide 1′,1′-dioxide], for which the figures for the IC50 on human GnRH receptor and on human GnRHR were 82 nM and 78.7 nM, respectively.
In the case of `O=C(NCc1ncc(C(F)(F)F)cc1Cl)c1ccc2c(c1)C1(CCS(=O)(=O)CC1)[C@@H](C1CC1)N2S(=O)(=O)c1ccc(F)cc1` [Example 3.2, (2R)—N-{[3-chloro-5-(trifluoromethyl)pyridin-2-yl]methyl}-2-cyclopropyl-1-[(4-fluorophenyl)sulfonyl]-1,2,2′,3′,5′,6′-hexahydrospiro[indole-3,4′-thiopyran]-5-carboxamide 1′,1′-dioxide], the concentration for half-maximal inhibition (IC50) at human GnRH receptor worked out at 2430 nM; on human GnRHR it was 748 nM.
Take `CC(=O)N[C@H](Cc1ccc2ccccc2c1)C(=O)N[C@H](Cc1ccc(Cl)cc1)C(=O)N[C@H](Cc1cccnc1)C(=O)N[C@@H](CO)C(=O)N[C@@H](Cc1ccc(O)cc1)C(=O)N[C@H](CCCNC(N)=O)C(=O)N[C@@H](CC(C)C)C(=O)N[C@@H](CCCNC(=N)N)C(=O)N1CCC[C@H]1C(=O)N[C@H](C)C(N)=O` [cetrorelix, reference compound] (Ac-[d2Nal][dPhe(4-Cl)][d3Pal]SY[dCit]LRP[dA]-NH2): the LH suppression entry in assay [1] is “ca. 90%”.

The term IC50 denotes the concentration that inhibits the measured activity by half.
